Data taken from US20230097553A1 (priority 2020, published 2023).
Several values for one entry are separate records, joined by “and”; a condition that tells them apart may be missing. Equal entries are not always repeated. Where two headings read alike, the source gives them in different places.

Legend:
[1] = test system: 2019-nCoV (2019BetaCoV/Wuhan/WIV04/2019 strain); assay: microbe, parasite or virus in culture; assay type: cell-based
[2] = test system: Ebola virus replicon; assay: microbe, parasite or virus in culture; assay type: cell-based; details: for IC50: Zaire ebolavirus
[3] = test system: avian influenza virus A/GuangZhou/99 (H9N2); assay: organism not typed; assay type: cell-based
[4] = Antiviral activity in combination with other antiviral drugs; details: combined with lopinavir, ritonavir, ribavirin, remdesivir, oseltamivir, tamiflu, lanimivir, peramivir, chloroquine
[5] = test system: influenza virus A/WSN/33 (H1N1); set-up: species or system BALB/c female mice; details: mouse, in vivo
[6] = test system: COVID-19; assay: Compassionate use in small-scale (10 cases) COVID-19 patients; assay type: in vivo, human
[7] = test system: COVID-19; assay: Compassionate use in large-scale (132 cases) COVID-19 patients; assay type: in vivo, human; details: patients who took leflunomide within 18 days of admission
[8] = test system: MDCK cells; details: dog
[9] = in vitro; details: Syrian hamster
[10] = Drug toxicity by CellTiter-Glo (CC50), 2019-nCoV host cells; details: African green monkey, Vero E6 cells
[11] = Severe acute respiratory syndrome coronavirus 2, Vero C1008, 48 h

Cc1oncc1C(=O)Nc1ccc(C(F)(F)F)cc1 [Leflunomide, leflunomide]
SI [1]: 21.19
IC50 [1, 11]: 41.5 µM
SI [2]: 10.66
IC50 ([2]; BSR-T7/5, 24 h): 15.3 µM
SI [3]: 8.58
IC50 ([3]; MDCK): 8.12 µM
therapeutic effects in combination with other antiviral drugs [4]: better therapeutic effects
mice rescued from death [5]: 50% and 100%
Time to negative conversion after treatment ([6]; leflunomide experimental group, Number of Patients 1): 4 days
Time to negative conversion after treatment ([6]; leflunomide experimental group, Number of Patients 3): 8 days
Time to negative conversion after treatment ([6]; leflunomide experimental group, Number of Patients 4): 5 days
CRP after treatment ([6]; leflunomide experimental group, n = 5, range (5-5), normal 0-10, P value 0.109 vs before): 5 mg/L
CRP before treatment ([6]; leflunomide experimental group, n = 5, range (7.8-120.6), normal 0-10): 37.4 mg/L
level of C-reactive protein ([6]; small-scale (10 cases), after leflunomide treatment): significantly reduced
time to negative conversion (median) ([6]; small-scale (10 cases), control group median 11 days, P=0.046): 5 days
time from taking leflunomide (LEF) to negative conversion (VC), median [7]: 6.5 days
time from admission (AD) to negative conversion (VC), median ([7]; control group median 25 days): 16 days
CC50 [8]: 69.6 µM
CC50 [9]: 163 µM
CC50 at 72 h [10]: 879 µM

C/C(O)=C(\C#N)C(=O)Nc1ccc(C(F)(F)F)cc1 [Teriflunomide, teriflunomide]
SI [1]: 141.75
IC50 [1, 11]: 6 µM
IC50 ([1]; Severe acute respiratory syndrome coronavirus 2, Vero C1008, read-out: drug concentration at which inhibitory efficiency on virus replication reaches 50%): 1.62 µg/mL
SI [2]: 32.26
IC50 ([2]; BSR-T7/5, 24 h): 3.41 µM
IC50 ([2]; BSR-T7/5, read-out: drug concentration at which inhibitory efficiency on virus replication reaches 50%): 0.923 µg/mL
SI [3]: 53.13
IC50 ([3]; MDCK): 3.36 µM
IC50 ([3]; unidentified influenza virus, H9N2, MDCK, read-out: drug concentration at which inhibitory efficiency on virus replication reaches 50%): 0.9 µg/mL
CC50 [9]: 110 µM
